Data on 27 compounds can be found in patent US12612409B2, “Pyrrolopyrimidines as CFTR potentiators” (Cystic Fibrosis Foundation, priority 2016, dated 2026).

The term EC50 denotes the midpoint of the concentration-response curve.

The target in test [1] is T1, CFTR in F508del/F508del primary CF hBE cells (Homo sapiens, UniProt P13569, DEL508-508).
T1 construct: Primary cystic fibrosis human bronchial epithelial (CF hBE) cells were expanded and cultured; endogenous in cells; host or cells: primary CF human bronchial epithelial cells, genotype F508del/F508del
T1 sequence (P13569 with tags, fused parts or gaps DEL508-508): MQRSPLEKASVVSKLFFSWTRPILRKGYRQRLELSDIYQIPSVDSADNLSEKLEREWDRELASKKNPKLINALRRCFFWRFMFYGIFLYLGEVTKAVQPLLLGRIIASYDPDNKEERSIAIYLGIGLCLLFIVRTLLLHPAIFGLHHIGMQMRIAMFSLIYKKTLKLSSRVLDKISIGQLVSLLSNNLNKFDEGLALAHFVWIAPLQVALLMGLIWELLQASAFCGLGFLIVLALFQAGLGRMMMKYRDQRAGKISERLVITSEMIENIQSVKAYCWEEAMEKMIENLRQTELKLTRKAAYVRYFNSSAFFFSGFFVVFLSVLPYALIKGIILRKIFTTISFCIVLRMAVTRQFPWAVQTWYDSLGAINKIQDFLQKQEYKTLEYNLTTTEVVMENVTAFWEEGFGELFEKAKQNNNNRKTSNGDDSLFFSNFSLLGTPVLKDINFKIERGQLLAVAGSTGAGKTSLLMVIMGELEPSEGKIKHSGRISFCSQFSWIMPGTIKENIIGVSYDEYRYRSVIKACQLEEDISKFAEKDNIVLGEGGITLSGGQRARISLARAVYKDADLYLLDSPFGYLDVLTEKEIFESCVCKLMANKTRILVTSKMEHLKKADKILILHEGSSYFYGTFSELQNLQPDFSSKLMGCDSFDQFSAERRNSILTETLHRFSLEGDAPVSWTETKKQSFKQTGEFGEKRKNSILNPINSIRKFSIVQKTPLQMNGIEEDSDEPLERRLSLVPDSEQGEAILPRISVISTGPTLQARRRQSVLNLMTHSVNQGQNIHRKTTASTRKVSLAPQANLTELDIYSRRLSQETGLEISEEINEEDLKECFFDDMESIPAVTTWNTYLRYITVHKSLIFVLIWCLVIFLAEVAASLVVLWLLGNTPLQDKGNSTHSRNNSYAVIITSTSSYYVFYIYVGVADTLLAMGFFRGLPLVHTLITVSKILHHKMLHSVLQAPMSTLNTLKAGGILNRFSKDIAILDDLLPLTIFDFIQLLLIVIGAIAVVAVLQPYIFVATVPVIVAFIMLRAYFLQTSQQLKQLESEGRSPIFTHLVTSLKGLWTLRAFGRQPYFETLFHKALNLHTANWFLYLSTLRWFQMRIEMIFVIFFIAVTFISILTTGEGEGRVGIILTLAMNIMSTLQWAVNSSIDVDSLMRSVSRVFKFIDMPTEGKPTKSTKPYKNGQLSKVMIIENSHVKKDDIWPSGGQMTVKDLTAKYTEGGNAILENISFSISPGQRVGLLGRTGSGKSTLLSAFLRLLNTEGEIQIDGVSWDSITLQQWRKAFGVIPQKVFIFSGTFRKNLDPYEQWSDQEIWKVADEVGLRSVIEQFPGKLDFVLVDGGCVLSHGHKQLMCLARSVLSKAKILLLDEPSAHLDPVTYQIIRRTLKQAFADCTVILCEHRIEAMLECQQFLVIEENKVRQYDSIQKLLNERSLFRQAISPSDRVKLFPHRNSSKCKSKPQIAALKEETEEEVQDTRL
As to the kind of experiment: Ussing chamber electrophysiology assay of CFTR potentiation in F508del/F508del CF bronchial epithelial cells (27° C.). The test is classed as cell-based. An outline of the steps: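 Short-circuit current was recorded under zero-voltage clamp across primary CF bronchial epithelia cultured >30 days at air/liquid interface, bathed apically and basolaterally in HEPES-buffered saline. Sequential additions: amiloride (30 uM), forskolin (10 uM), compound at 4 increasing levels, CFTRinh-172 (20 uM). Responses normalised between DMSO (0%) and maximal positive-control potentiator (100%).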

Test [2] addresses T2, recombinant F508del V470 CFTR in Fischer rat thyroid (FRT) cells (Homo sapiens, UniProt P13569, DEL508-508).
T2 construct: expressed in transfected cells
As to the kind of experiment: FRT ion flux assay of F508del CFTR potentiation. The test is classed as cell-based. To be noted: FRT cells expressing F508del V470 CFTR, forskolin 20 uM, 27° C. pre-incubation. The method in brief:
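Potentiation read as YFP quench ~21 s after iodide buffer addition, as second/initial fluorescence ratio normalised between DMSO (0%) and reference potentiator (100%).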

T2 sequence (P13569 with tags, fused parts or gaps DEL508-508): as above

`COc1cccc(-c2cc(C(C)n3cc(-c4ccc(Cl)cc4)c4c(N)ncnc43)on2)c1` (stereo not drawn) [Example 261, 5-(4-Chlorophenyl)-7-{1-[3-(3-methoxyphenyl)-1,2-oxazol-5-yl]ethyl}-7H-pyrrolo[2,3-d]pyrimidin-4-amine]: the EC50 in test [1] came to 0.232 µM; in test [2], 0.169 µM.

For the compound `Nc1ncnc2c1c(-c1ccc(Cl)cc1)cn2Cc1cnn(-c2ccccc2F)c1` [Example 262, 5-(4-Chlorophenyl)-7-{[1-(2-fluorophenyl)-1H-pyrazol-4-yl]methyl}-7H-pyrrolo[2,3-d]pyrimidin-4-amine], the values for the EC50 in test [1] and in test [2] were 0.0602 µM and 0.313 µM, respectively.

As for `Nc1ncnc2c1c(-c1ccc(Cl)cc1)cn2Cc1cnc(-c2ccccc2F)[nH]1` [Example 263, 5-(4-Chlorophenyl)-7-{[2-(2-fluorophenyl)-1H-imidazol-5-yl]methyl}-7H-pyrrolo[2,3-d]pyrimidin-4-amine], the EC50 came out at 0.0216 µM in test [1] and 0.199 µM in test [2].

With `Nc1ncnc2c1c(-c1ccc(Cl)cc1)cn2Cc1cnc(-c2ccccc2)[nH]1` [Example 264, 5-(4-Chlorophenyl)-7-[(2-phenyl-1H-imidazol-5-yl)methyl]-7H-pyrrolo[2,3-d]pyrimidin-4-amine], the EC50 was found to be 0.0354 µM in test [1] and 0.176 µM in test [2].

Regarding `Cc1ccccc1-c1cc(C(C)n2cc(-c3ccc(Cl)cc3)c3c(N)ncnc32)on1` (stereo not drawn) [Example 266, 5-(4-Chlorophenyl)-7-{1-[3-(2-methylphenyl)-1,2-oxazol-5-yl]ethyl}-7H-pyrrolo[2,3-d]pyrimidin-4-amine], the EC50 in test [1] was 0.253 µM; in test [2] it was 0.138 µM.

In the case of `CC(c1cc(-c2cccc(F)c2)no1)n1cc(-c2ccc(Cl)cc2)c2c(N)ncnc21` (stereo not drawn) [Example 267, 5-(4-Chlorophenyl)-7-{1-[3-(3-fluorophenyl)-1,2-oxazol-5-yl]ethyl}-7H-pyrrolo[2,3-d]pyrimidin-4-amine], the EC50 came out at 0.136 µM in test [1] and 1.12 µM in test [2].

`COc1ncccc1-c1cn(Cc2ccn(-c3ccccc3F)n2)c2ncnc(N)c12` [Example 268, 7-{[1-(2-Fluorophenyl)-1H-pyrazol-3-yl]methyl}-5-(2-methoxypyridin-3-yl)-7H-pyrrolo[2,3-d]pyrimidin-4-amine]: the figures for the EC50 in test [1] and in test [2] were 0.578 µM and 0.47 µM, respectively.

`Nc1ncnc2c1c(-c1ccc(Cl)cc1)cn2Cc1cc(C2CCCCC2)no1` [Example 269, 5-(4-Chlorophenyl)-7-[(3-cyclohexyl-1,2-oxazol-5-yl)methyl]-7H-pyrrolo[2,3-d]pyrimidin-4-amine]: the EC50 in test [1] came to 0.0227 µM; in test [2] it was 0.478 µM.

In the case of `COc1ncccc1-c1cn(Cc2cnn(-c3ccc(C(F)F)cc3)c2)c2ncnc(N)c12` [Example 270, 7-({1-[4-(Difluoromethyl)phenyl]-1H-pyrazol-4-yl}methyl)-5-(2-methoxypyridin-3-yl)-7H-pyrrolo[2,3-d]pyrimidin-4-amine], the EC50 is 0.0477 µM in test [1] and 0.451 µM in test [2].

`COc1ncccc1-c1cn(Cc2nnc(-c3ccccc3)[nH]2)c2ncnc(N)c12` [Example 272, 5-(2-Methoxypyridin-3-yl)-7-[(5-phenyl-4H-1,2,4-triazol-3-yl)methyl]-7H-pyrrolo[2,3-d]pyrimidin-4-amine]: the results for the EC50 in test [1] and in test [2] were 0.833 µM and 0.398 µM, respectively.

Consider `COc1ccc(-c2c(C)n(Cc3cn(-c4ccc(F)cc4F)nn3)c3ncnc(N)c23)cn1` [Example 278, 7-{[1-(2,4-Difluorophenyl)-1H-1,2,3-triazol-4-yl]methyl}-5-(6-methoxypyridin-3-yl)-6-methyl-7H-pyrrolo[2,3-d]pyrimidin-4-amine], for which the figures for the EC50 in test [1] and in test [2] were 0.152 µM and 0.219 µM, respectively.

In the case of `Nc1ncnc2c1c(-c1ccc(Cl)cc1)cn2Cc1cc(C2CC2)no1` [Example 280, 5-(4-Chlorophenyl)-7-[(3-cyclopropyl-1,2-oxazol-5-yl)methyl]-7H-pyrrolo[2,3-d]pyrimidin-4-amine], the 50% effective concentration (EC50) stood at 0.127 µM in test [1] and 2.67 µM in test [2].

Consider `Nc1ncnc2c1c(-c1ccc(Cl)cc1)cn2Cc1nc(-c2ccccc2)c[nH]1` [Example 282, 5-(4-Chlorophenyl)-7-[(4-phenyl-1H-imidazol-2-yl)methyl]-7H-pyrrolo[2,3-d]pyrimidin-4-amine], for which the results for the EC50 in test [1] and in test [2] were 0.216 µM and 0.909 µM, respectively.

For `CC(C)c1cc(Cn2cc(-c3ccc(Cl)cc3)c3c(N)ncnc32)on1` [Example 283, 5-(4-Chlorophenyl)-7-{[3-(propan-2-yl)-1,2-oxazol-5-yl]methyl}-7H-pyrrolo[2,3-d]pyrimidin-4-amine], the values for the EC50 in test [1] and in test [2] were 0.111 µM and 0.659 µM, respectively.

With `Nc1ncnc2c1c(-c1ccc(Cl)cc1)cn2Cc1ncc(-c2ccccc2F)[nH]1` [Example 285, 5-(4-Chlorophenyl)-7-{[5-(2-fluorophenyl)-1H-imidazol-2-yl]methyl}-7H-pyrrolo[2,3-d]pyrimidin-4-amine], the EC50 is 3.5 µM in test [1] and 3.69 µM in test [2].

Regarding `COc1ncccc1-c1cn(Cc2cnn(-c3c(F)cccc3F)c2)c2ncnc(N)c12` [Example 286, 7-{[1-(2,6-Difluorophenyl)-1H-pyrazol-4-yl]methyl}-5-(2-methoxypyridin-3-yl)-7H-pyrrolo[2,3-d]pyrimidin-4-amine], the EC50 in test [1] amounted to 0.176 µM; in test [2], 0.081 µM.

Turning to `CC(c1cn(-c2ncccc2F)nn1)n1cc(-c2ccc(Cl)cc2)c2c(N)ncnc21` (stereo not drawn) [Example 287, 5-(4-Chlorophenyl)-7-{1-[1-(3-fluoropyridin-2-yl)-1H-1,2,3-triazol-4-yl]ethyl}-7H-pyrrolo[2,3-d]pyrimidin-4-amine], the EC50 was 0.254 µM in test [1] and 0.112 µM in test [2].

For the compound `CC(c1cn(-c2ncccc2F)nn1)n1ccc2c(Nc3ccc(OC4CC4)cc3)ncnc21` (stereo not drawn) [Example 288, [4-(Cyclopropyloxy)phenyl]-7-{1-[1-(3-fluoropyridin-2-yl)-1H-1,2,3-triazol-4-yl]ethyl}-7H-pyrrolo[2,3-d]pyrimidin-4-amine], the EC50 in test [1] came to 0.0396 µM; in test [2], 0.0906 µM.

Regarding `Nc1ncnc2c1c(C1CC1)cn2Cc1cn(-c2ccccc2F)nn1` [Example 289, 5-Cyclopropyl-7-{[1-(2-fluorophenyl)-1H-1,2,3-triazol-4-yl]methyl}-7H-pyrrolo[2,3-d]pyrimidin-4-amine], the EC50 in test [1] came out at 0.342 µM; in test [2] it was 0.142 µM.

For `COCC1CC1c1cn(Cc2cn(-c3ccccc3F)nn2)c2ncnc(N)c12` (stereo not drawn) [Example 290, 7-{[1-(2-Fluorophenyl)-1H-1,2,3-triazol-4-yl]methyl}-5-[2-(methoxymethyl)cyclopropyl]-7H-pyrrolo[2,3-d]pyrimidin-4-amine], the EC50 in test [1] came out at 0.997 µM; in test [2], 0.669 µM.

Regarding `Nc1ncnc2c1c(C1CC1)cn2C1(c2cn(-c3ccccc3F)nn2)CC1` [Example 295, 5-Cyclopropyl-7-{1-[1-(2-fluorophenyl)-1H-1,2,3-triazol-4-yl]cyclopropyl}-7H-pyrrolo[2,3-d]pyrimidin-4-amine], the concentration for a half-maximal effect (EC50) worked out at 0.389 µM in test [1] and 0.185 µM in test [2].

As to `COc1nccnc1-c1cn(Cc2cn(-c3ccccc3F)nn2)c2ncnc(N)c12` [Example 296, 7-{[1-(2-Fluorophenyl)-1H-1,2,3-triazol-4-yl]methyl}-5-(3-methoxypyrazin-2-yl)-7H-pyrrolo[2,3-d]pyrimidin-4-amine], the EC50 in test [1] was 0.0503 µM; in test [2] it was 0.124 µM.

As to `COc1ncccc1-c1cn(C(c2cn(-c3ccccc3F)nn2)C2CC2)c2ncnc(N)c12` (stereo not drawn) [Example 297, 7-{Cyclopropyl[1-(2-fluorophenyl)-1H-1,2,3-triazol-4-yl]methyl}-5-(2-methoxypyridin-3-yl)-7H-pyrrolo[2,3-d]pyrimidin-4-amine], the EC50 in test [1] amounted to 0.0401 µM; in test [2], 0.0575 µM.

Consider `COc1ncccc1-c1cn(C2(c3cn(-c4ccccc4F)nn3)CC2)c2ncnc(N)c12` [Example 298, 7-{1-[1-(2-Fluorophenyl)-1H-1,2,3-triazol-4-yl]cyclopropyl}-5-(2-methoxypyridin-3-yl)-7H-pyrrolo[2,3-d]pyrimidin-4-amine], for which the EC50 in test [1] stood at 0.245 µM; in test [2], 0.18 µM.

Consider `Nc1ncnc2c1c(-c1cccc3ncoc13)cn2Cc1cn(-c2ccccc2F)nn1` [Example 299, 5-(1,3-Benzoxazol-7-yl)-7-{[1-(2-fluorophenyl)-1H-1,2,3-triazol-4-yl]methyl}-7H-pyrrolo[2,3-d]pyrimidin-4-amine], for which the EC50 in test [1] was found to be 0.273 µM; in test [2], 0.235 µM.

Take `Nc1ncnc2c1c(-c1ncco1)cn2Cc1cn(-c2ccccc2F)nn1` [Example 301, 7-{[1-(2-Fluorophenyl)-1H-1,2,3-triazol-4-yl]methyl}-5-(1,3-oxazol-2-yl)-7H-pyrrolo[2,3-d]pyrimidin-4-amine]: the EC50 in test [1] is 0.461 µM; in test [2], 0.36 µM.

In the case of `CCC(c1cn(-c2ccccc2F)nn1)n1cc(-c2cncnc2OC)c2c(N)nc(C)nc21` (stereo not drawn) [Example 302, 7-{1-[1-(2-Fluorophenyl)-1H-1,2,3-triazol-4-yl]propyl}-5-(4-methoxypyrimidin-5-yl)-2-methyl-7H-pyrrolo[2,3-d]pyrimidin-4-amine], the figures for the EC50 in test [1] and in test [2] were 0.297 µM and 0.232 µM, respectively.
